According to ChEMBL document CHEMBL1143099, “Synthesis and SAR of potent and orally bioavailable tert-butylpyrrolidine archetype derived melanocortin subtype-4 receptor modulators” (Bioorg Med Chem Lett, 2008):

Assays:
Melanocortin receptor 4 [1] = target: T1, Melanocortin receptor 4 (Homo sapiens, UniProt P32245); experiment: Displacement of [125I]NDP-alpha-MSH from human MC4R expressed in CHO cells; assay type: cell-based
Melanocortin receptor 4 [2] = target: T1, Melanocortin receptor 4; experiment: Agonist activity at human MC4R expressed in CHO cells assessed as cAMP release; assay type: functional, cell-based
Melanocortin receptor 4 [3] = target: T1, Melanocortin receptor 4; experiment: Agonist activity at human MC4R expressed in CHO cells assessed as cAMP release relative to alpha-MSH; assay type: functional, cell-based
[4] = Plasma clearance in rat at 4 mg/kg, po; assay type: ADME, organism-based; design: dose 4 mg/kg, route oral
[5] = Binding affinity to human MC1bR
Melanocortin receptor 3 [6] = target: T2, Melanocortin receptor 3 (Homo sapiens, UniProt P41968); experiment: Binding affinity to human MC3R
Melanocortin receptor 5 [7] = target: T3, Melanocortin receptor 5 (Homo sapiens, UniProt P33032); experiment: Binding affinity to human MC5R
Melanocortin receptor 4 [8] = target: T4, Melanocortin receptor 4 (Rattus norvegicus, UniProt P70596); experiment: Binding affinity to rat MC4R
[9] = Agonist activity at human MC1bR expressed in CHO cells assessed as cAMP release; assay type: functional, cell-based
Melanocortin receptor 3 [10] = target: T2, Melanocortin receptor 3; experiment: Agonist activity at human MC3R expressed in CHO cells assessed as cAMP release; assay type: functional, cell-based
Melanocortin receptor 5 [11] = target: T3, Melanocortin receptor 5; experiment: Agonist activity at human MC5R expressed in CHO cells assesses as cAMP release; assay type: functional, cell-based
Melanocortin receptor 4 [12] = target: T4, Melanocortin receptor 4; experiment: Agonist activity at rat MC4R expressed in CHO cells assessed as cAMP release; assay type: functional, cell-based
[13] = Agonist activity at human MC1bR expressed in CHO cells assessed as cAMP release at 10 uM relative to alpha-MSH; assay type: functional
Melanocortin receptor 3 [14] = target: T2, Melanocortin receptor 3; experiment: Agonist activity at human MC3R expressed in CHO cells assessed as cAMP release at 10 uM relative to alpha-MSH; assay type: functional, cell-based
Melanocortin receptor 5 [15] = target: T3, Melanocortin receptor 5; experiment: Agonist activity at human MC5R expressed in CHO cells assessed as cAMP release at 10 uM relative to alpha-MSH; assay type: functional, cell-based
[16] = target: Melanocortin receptor 4 (Rattus norvegicus) (UniProt P70596); experiment: Agonist activity at rat MC4R expressed in CHO cells assessed as cAMP release at 10 uM relative to alpha-MSH; assay type: functional, cell-based
[17] = Oral bioavailability in Sprague-Dawley rat at 4 mg/kg; assay type: ADME, organism-based; details: in vivo
Melanocortin receptor 4 [18] = target: T1, Melanocortin receptor 4; experiment: Agonist activity at human MC4R expressed in CHO cells assessed as cAMP release at 10 uM relative to alpha-MSH; assay type: functional, cell-based
Homo sapiens [19] = species: Homo sapiens; experiment: Selectivity for human MC4R over human MC3R
Homo sapiens [20] = species: Homo sapiens; experiment: Selectivity for human MC4R over human MC1bR

T2 sequence (P41968 whole entry): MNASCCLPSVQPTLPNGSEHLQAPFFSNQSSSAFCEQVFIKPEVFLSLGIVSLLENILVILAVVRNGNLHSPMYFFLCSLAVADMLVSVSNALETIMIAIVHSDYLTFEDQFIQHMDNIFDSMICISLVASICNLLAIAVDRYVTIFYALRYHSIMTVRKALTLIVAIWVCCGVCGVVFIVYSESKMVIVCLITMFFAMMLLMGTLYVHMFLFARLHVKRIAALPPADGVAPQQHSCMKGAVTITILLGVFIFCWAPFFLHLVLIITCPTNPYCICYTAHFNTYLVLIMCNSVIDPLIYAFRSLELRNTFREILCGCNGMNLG
T4 sequence (P70596 whole entry): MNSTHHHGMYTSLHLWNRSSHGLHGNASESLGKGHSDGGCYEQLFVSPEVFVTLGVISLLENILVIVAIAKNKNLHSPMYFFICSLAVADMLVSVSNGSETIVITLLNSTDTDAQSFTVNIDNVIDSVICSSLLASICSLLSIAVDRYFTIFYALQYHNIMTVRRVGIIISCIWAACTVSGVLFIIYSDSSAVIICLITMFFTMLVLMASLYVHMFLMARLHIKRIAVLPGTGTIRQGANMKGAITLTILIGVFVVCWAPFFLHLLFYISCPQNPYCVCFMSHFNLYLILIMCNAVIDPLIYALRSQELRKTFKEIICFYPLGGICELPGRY
Melanocortin receptor 4 (Rattus norvegicus), sequence (P70596 whole entry): as above
T1 sequence (P32245 whole entry): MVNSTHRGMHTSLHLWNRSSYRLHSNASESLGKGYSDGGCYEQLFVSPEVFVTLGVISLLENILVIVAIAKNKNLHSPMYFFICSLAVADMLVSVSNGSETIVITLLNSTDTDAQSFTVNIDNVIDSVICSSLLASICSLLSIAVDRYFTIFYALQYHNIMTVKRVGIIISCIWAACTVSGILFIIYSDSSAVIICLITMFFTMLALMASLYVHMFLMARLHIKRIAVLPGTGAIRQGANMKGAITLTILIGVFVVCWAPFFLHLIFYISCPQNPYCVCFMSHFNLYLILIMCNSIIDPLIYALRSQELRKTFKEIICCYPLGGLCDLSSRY
T3 sequence (P33032 whole entry): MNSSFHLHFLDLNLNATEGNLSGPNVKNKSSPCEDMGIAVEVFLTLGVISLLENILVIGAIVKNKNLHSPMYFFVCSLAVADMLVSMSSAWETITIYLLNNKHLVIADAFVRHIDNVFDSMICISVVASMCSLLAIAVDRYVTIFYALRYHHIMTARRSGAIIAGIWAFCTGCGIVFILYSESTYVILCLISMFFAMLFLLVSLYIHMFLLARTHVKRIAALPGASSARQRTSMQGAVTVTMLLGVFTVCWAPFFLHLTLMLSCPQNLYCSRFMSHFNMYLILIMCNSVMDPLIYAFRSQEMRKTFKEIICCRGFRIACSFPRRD

SMILES | IC50 (Melanocortin receptor 4 [1]) | EC50 (Melanocortin receptor 4 [2]) | %max (Melanocortin receptor 4 [3]) | CL/F [4] | IC50 [5] | IC50 (Melanocortin receptor 3 [6]) | IC50 (Melanocortin receptor 5 [7]) | EC50 (Melanocortin receptor 5 [11]) | Activity [13] | Activity (Melanocortin receptor 3 [14]) | Activity (Melanocortin receptor 5 [15]) | bioavailability [17] | also measured
CC[C@H](NC(C)=O)c1cc(Cl)ccc1C1CCN(C(=O)[C@@H]2CN(C(C)(C)C)C[C@H]2c2ccc(F)cc2F)CC1 | 70 nM | 17.9 nM | 108% |  |  |  |  |  |  |  |  |  | 
CC[C@H](NC(C)=O)c1cc(Cl)ccc1C1CCN(C(=O)[C@@H]2CN(C(C)(C)C)C[C@H]2c2cc(F)c(F)cc2F)CC1 | 128 nM | 130 nM | 93% |  |  |  |  |  |  |  |  |  | 
CC[C@H](NC(C)=O)c1cc(Cl)ccc1C1CCN(C(=O)[C@@H]2CN(C(C)(C)C)C[C@H]2c2ccc(Br)cc2F)CC1 | 4 nM | 2.1 nM | 100% | 7.3 mL/min/kg | 695 nM | 1050 nM | 65.3 nM | 102 nM | 57% | 88% | 88% | 24.7% | IC50 (Melanocortin receptor 4 [8]): 1.7 nM; EC50 [9]: 274 nM; EC50 (Melanocortin receptor 3 [10]): 97.4 nM; EC50 (Melanocortin receptor 4 [12]): 0.5 nM; Activity [16]: 94%
CC[C@H](NC(C)=O)c1cc(Cl)ccc1C1CCN(C(=O)[C@@H]2CN(C(C)(C)C)C[C@H]2c2ccc(F)cc2Cl)CC1 | 216 nM | 215 nM | 84% |  |  |  |  |  |  |  |  |  | 
CC[C@H](NC(C)=O)c1cc(Cl)ccc1C1CCN(C(=O)[C@@H]2CN(C(C)(C)C)C[C@H]2c2ccc(Cl)cc2Cl)CC1 | 17.9 nM | 156 nM | 48% |  |  |  |  |  |  |  |  |  | 
CC[C@H](NC(C)=O)c1cc(Cl)ccc1C1CCN(C(=O)[C@H]2CN(C(C)(C)C)C[C@@H]2c2ccc(F)cc2Cl)CC1 | 82.2 nM |  |  |  |  |  |  |  |  |  |  |  | Activity (Melanocortin receptor 4 [18]): 10%
CC[C@H](NC(C)=O)c1cc(Cl)ccc1C1CCN(C(=O)[C@@H]2CN(C(C)(C)C)C[C@H]2c2ccc(Cl)cc2F)CC1 | 6.2 nM | 2.8 nM | 97% | 11.4 mL/min/kg | 1340 nM | 1490 nM | 129 nM | 372 nM | 57% | 92% | 98% | 24.3% | EC50 [9]: 905 nM; EC50 (Melanocortin receptor 3 [10]): 250 nM; EC50 (Melanocortin receptor 4 [12]): 0.9 nM; Activity [16]: 106%
CC[C@H](NC(C)=O)c1cc(Cl)ccc1C1CCN(C(=O)[C@H]2CN(C(C)(C)C)C[C@@H]2c2ccc(Cl)cc2Cl)CC1 | 3.3 nM |  |  | 11.4 mL/min/kg | 20000 nM | 4290 nM | 245 nM | 1600 nM | 3% | 5% | 10% | 30.3% | Activity (Melanocortin receptor 4 [18]): 1%; IC50 (Melanocortin receptor 4 [8]): 0.5 nM; Activity [16]: 6%; Ratio IC50 (Homo sapiens [19]): > 1000; Ratio IC50 (Homo sapiens [20]): > 6000
CC[C@H](NC(C)=O)c1cc(Cl)ccc1C1CCN(C(=O)[C@H]2CN(C(C)(C)C)C[C@@H]2c2ccc(C(F)(F)F)cc2F)CC1 | 9.8 nM |  |  |  |  |  |  |  |  |  |  |  | Activity (Melanocortin receptor 4 [18]): 5%
CC[C@H](NC(C)=O)c1cc(Cl)ccc1C1CCN(C(=O)[C@H]2CN(C(C)(C)C)C[C@@H]2c2ccc(F)cc2F)CC1 | 640 nM | 565 nM | 83% |  |  |  |  |  |  |  |  |  | 
CC[C@H](NC(C)=O)c1cc(Cl)ccc1C1CCN(C(=O)[C@@H]2CN(C(C)(C)C)C[C@H]2c2ccc(OC)cc2F)CC1 | 11.2 nM | 4.6 nM | 100% | 66.4 mL/min/kg | 312 nM | 2960 nM | 205 nM | 167 nM |  | 91% | 101% | 3.8% | EC50 (Melanocortin receptor 3 [10]): 157 nM
CC[C@H](NC(C)=O)c1cc(Cl)ccc1C1CCN(C(=O)[C@H]2CN(C(C)(C)C)C[C@@H]2c2ccc(Cl)cc2F)CC1 | 13.2 nM | 111 nM | 45% |  |  |  |  |  |  |  |  |  | 
CC[C@H](NC(C)=O)c1cc(Cl)ccc1C1CCN(C(=O)[C@H]2CN(C(C)(C)C)C[C@@H]2c2ccc(OC)cc2F)CC1 | 37.2 nM | 245 nM | 34% |  |  |  |  |  |  |  |  |  | 
CC[C@H](NC(C)=O)c1cc(Cl)ccc1C1CCN(C(=O)[C@H]2CN(C(C)(C)C)C[C@@H]2c2ccc(C(F)(F)F)cc2)CC1 | 7.8 nM |  |  | 5.6 mL/min/kg | 16400 nM | 3780 nM | 450 nM |  | 5% | 8% | 11% | 28% | Activity (Melanocortin receptor 4 [18]): 1%; IC50 (Melanocortin receptor 4 [8]): 1 nM; Activity [16]: 15%
CC[C@H](NC(C)=O)c1cc(Cl)ccc1C1CCN(C(=O)[C@H]2CN(C(C)(C)C)C[C@@H]2c2cc(F)c(F)cc2F)CC1 | 101 nM | 3700 nM | 50% |  |  |  |  |  |  |  |  |  | 
CC[C@H](NC(C)=O)c1cc(Cl)ccc1C1CCN(C(=O)[C@H]2CN(C(C)(C)C)C[C@@H]2c2ccc(Br)cc2F)CC1 | 4.1 nM | 13.4 nM | 33% | 9.12 mL/min/kg | 174000 nM | 2950 nM | 280 nM | 455 nM | 33% | 38% | 30% | 34.3% | IC50 (Melanocortin receptor 4 [8]): 1.5 nM; EC50 [9]: 1060 nM; EC50 (Melanocortin receptor 3 [10]): 917 nM; EC50 (Melanocortin receptor 4 [12]): 10.3 nM; Activity [16]: 44%
CC[C@H](NC(C)=O)c1cc(Cl)ccc1C1CCN(C(=O)[C@H]2CN(C(C)(C)C)C[C@@H]2c2ccc3ccccc3c2)CC1 | 528 nM | 1920 nM | 57% |  |  |  |  |  |  |  |  |  | 
CC[C@H](NC(C)=O)c1cc(Cl)ccc1C1CCN(C(=O)[C@@H]2CN(C(C)(C)C)C[C@H]2c2ccc(C(F)(F)F)cc2)CC1 | 28.1 nM | 67.2 nM | 90% |  |  |  |  |  |  |  |  |  | 
CC[C@H](NC(C)=O)c1cc(Cl)ccc1C1CCN(C(=O)[C@@H]2CN(C(C)(C)C)C[C@H]2c2ccc3ccccc3c2)CC1 | 76.2 nM | 120 nM | 47% | 37.6 mL/min/kg | 6590 nM | 12200 nM | 675 nM | 1230 nM | 10% | 16% | 35% | 15% | 
CC[C@H](NC(C)=O)c1cc(Cl)ccc1C1CCN(C(=O)[C@@H]2CN(C(C)(C)C)C[C@H]2c2ccc(C(F)(F)F)cc2F)CC1 | 22.7 nM | 88.8 nM | 99% |  |  |  |  |  |  |  |  |  | 
